Assay results: patent publication US9169254B2, “Spiroimidazolone derivative” (Chugai Seiyaku Kabushiki Kaisha, priority 2009, dated 2015)

Biological target: T1, human PTH1 receptor (Homo sapiens, UniProt Q03431)
T1 sequence (Q03431 27-593): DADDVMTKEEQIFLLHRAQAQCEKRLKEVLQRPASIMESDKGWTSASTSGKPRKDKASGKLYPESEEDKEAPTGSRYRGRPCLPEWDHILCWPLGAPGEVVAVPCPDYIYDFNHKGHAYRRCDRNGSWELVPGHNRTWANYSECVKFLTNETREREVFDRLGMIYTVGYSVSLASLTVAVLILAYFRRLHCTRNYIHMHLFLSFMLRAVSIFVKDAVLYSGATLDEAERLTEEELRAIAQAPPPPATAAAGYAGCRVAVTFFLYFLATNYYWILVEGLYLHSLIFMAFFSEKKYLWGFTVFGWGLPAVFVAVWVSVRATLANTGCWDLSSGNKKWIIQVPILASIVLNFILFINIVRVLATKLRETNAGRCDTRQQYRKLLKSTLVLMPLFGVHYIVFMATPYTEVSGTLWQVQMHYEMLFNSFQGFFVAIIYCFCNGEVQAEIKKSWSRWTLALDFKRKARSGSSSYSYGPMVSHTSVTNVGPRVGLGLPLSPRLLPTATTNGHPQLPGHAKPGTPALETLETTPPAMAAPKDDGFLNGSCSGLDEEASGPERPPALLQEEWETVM
Assay: In vitro cAMP signal activity in HKRK-B7 cells (LLC-PK1 cells overexpressing the human PTH1 receptor)
Assay type: cell-based
Conditions: HKRK-B7 cells; compound at 1×10^−3 M; cAMP produced as percentage of that produced by hPTH(1-34) at 100 nM

Row | SMILES | cAMP production activity (%)
1 | Cc1cc(C(=O)N2CCC(C)(O)CC2)cc(C)c1/C=C/S(=O)(=O)N1CCC2(CC1)N=C(c1ccc(C(F)(F)F)c(OC(C)(C)C(F)(F)F)c1)NC2=O [Compound 1209, 8-{(E)-2-[4-(4-hydroxy-4-methyl-piperidine-1-carbonyl)-2,6-dimethyl-phenyl]-ethenesulfonyl}-2-[3-(2,2,2-trifluoro-1,1-dimethyl-ethoxy)-4-trifluoromethyl-phenyl]-1,3,8-triaza-spiro[4.5]dec-1-en-4-one] | 94%
2 | [2H]C([2H])([2H])C([2H])([2H])C([2H])([2H])C([2H])([2H])Oc1cc(C2=NC3(CCN(S(=O)(=O)/C=C/c4c(C)cc(C(=O)N5CCC(C)(O)CC5)cc4C)CC3)C(=O)N2)ccc1F [Compound 1211, 2-(3-[1,1,2,2,3,3,4,4,4-^2H9]butoxy-4-fluoro-phenyl)-8-{(E)-2-[4-(4-hydroxy-4-methyl-piperidine-1-carbonyl)-2,6-dimethyl-phenyl]-ethenesulfonyl}-1,3,8-triaza-spiro[4.5]dec-1-en-4-one] | 99%
3 | Cc1cc(C(=O)N2CCC(C)(O)CC2)cc(C)c1/C=C/S(=O)(=O)N1CCC2(CC1)N=C(c1ccc3c(c1)OC(F)(F)C(F)(F)O3)NC2=O [Compound 1212, 8-{(E)-2-[4-(4-hydroxy-4-methyl-piperidine-1-carbonyl)-2,6-dimethyl-phenyl]-ethenesulfonyl}-2-(2,2,3,3-tetrafluoro-2,3-dihydro-benzo[1,4]dioxin-6-yl)-1,3,8-triaza-spiro[4.5]dec-1-en-4-one] | 96%
4 | Cc1cc(C(=O)N2CCC(C)(O)CC2)cc(C)c1/C=C/S(=O)(=O)N1CCC2(CC1)N=C(c1ccc(OC(F)(F)C(F)F)cc1)NC2=O [Compound 1213, 8-{(E)-2-[4-(4-hydroxy-4-methyl-piperidine-1-carbonyl)-2,6-dimethyl-phenyl]-ethenesulfonyl}-2-[4-(1,1,2,2-tetrafluoro-ethoxy)-phenyl]-1,3,8-triaza-spiro[4.5]dec-1-en-4-one] | 80%
5 | Cc1cc(C(=O)N2CCC(C)(O)CC2)cc(C)c1/C=C/S(=O)(=O)N1CCC2(CC1)N=C(c1ccc(F)c(OCCCC(F)(F)F)c1)NC2=O [Compound 1218, 2-[4-fluoro-3-(4,4,4-trifluoro-butoxy)-phenyl]-8-{(E)-2-[4-(4-hydroxy-4-methyl-piperidine-1-carbonyl)-2,6-dimethyl-phenyl]-ethenesulfonyl}-1,3,8-triaza-spiro[4.5]dec-1-en-4-one] | 90%
6 | [2H]C([2H])([2H])C([2H])([2H])C([2H])([2H])C([2H])([2H])Oc1ccc(C2=NC3(CCN(S(=O)(=O)/C=C/c4c(C)cc(C(=O)N5CCC(C)(O)CC5)cc4C)CC3)C(=O)N2)cc1C(F)(F)F [Compound 1220, 2-(4-[1,1,2,2,3,3,4,4,4-^2H9]butoxy-3-trifluoromethyl-phenyl)-8-{(E)-2-[4-(4-hydroxy-4-methyl-piperidine-1-carbonyl)-2,6-dimethyl-phenyl]-ethenesulfonyl}-1,3,8-triaza-spiro[4.5]dec-1-en-4-one] | 80%
7 | [2H]C([2H])([2H])C([2H])(Oc1ccc(C2=NC3(CCN(S(=O)(=O)/C=C/c4c(C)cc(C(=O)N5CCC(C)(O)CC5)cc4C)CC3)C(=O)N2)cc1C(F)(F)F)C([2H])([2H])[2H] [Compound 1222, 8-{(E)-2-[4-(4-hydroxy-4-methyl-piperidine-1-carbonyl)-2,6-dimethyl-phenyl]-ethenesulfonyl}-2-(4-[1,2,2,2,2,2,2-^2H7]isopropoxy-3-trifluoromethyl-phenyl)-1,3,8-triaza-spiro[4.5]dec-1-en-4-one] | 77%
8 | [2H]C([2H])([2H])C([2H])([2H])Oc1cc(C2=NC3(CCN(S(=O)(=O)/C=C/c4c(C)cc(C(=O)N5CCC(C)(O)CC5)cc4C)CC3)C(=O)N2)ccc1F [Compound 1224, 2-(3-[1,1,2,2,2-^2H5]ethoxy-4-fluoro-phenyl)-8-{(E)-2-[4-(4-hydroxy-4-methyl-piperidine-1-carbonyl)-2,6-dimethyl-phenyl]-ethenesulfonyl}-1,3,8-triaza-spiro[4.5]dec-1-en-4-one] | 88%
9 | [2H]C([2H])([2H])C([2H])(Oc1cc(C2=NC3(CCN(S(=O)(=O)/C=C/c4c(C)cc(C(=O)N5CCC(C)(O)CC5)cc4C)CC3)C(=O)N2)ccc1F)C([2H])([2H])[2H] [Compound 1225, 2-(4-fluoro-3-[1,2,2,2,2,2,2-^2H7]isopropoxy-phenyl)-8-{(E)-2-[4-(4-hydroxy-4-methyl-piperidine-1-carbonyl)-2,6-dimethyl-phenyl]-ethenesulfonyl}-1,3,8-triaza-spiro[4.5]dec-1-en-4-one] | 90%
10 | Cc1cc(C(=O)N2CCC(C)(O)CC2)cc(C)c1/C=C/S(=O)(=O)N1CCC2(CC1)N=C(c1cc(OCC(F)(F)C(F)F)cc(C(F)(F)F)c1)NC2=O [Compound 1226, 8-{(E)-2-[4-(4-hydroxy-4-methyl-piperidine-1-carbonyl)-2,6-dimethyl-phenyl]-ethenesulfonyl}-2-[3-(2,2,3,3-tetrafluoro-propoxy)-5-trifluoromethyl-phenyl]-1,3,8-triaza-spiro[4.5]dec-1-en-4-one] | 51%
11 | Cc1cc(C(=O)N2CCC(C)(O)CC2)cc(C)c1/C=C/S(=O)(=O)N1CCC2(CC1)N=C(c1ccc(Cl)c(OCCCC(F)(F)F)c1)NC2=O [Compound 1227, 2-[4-chloro-3-(4,4,4-trifluoro-butoxy)-phenyl]-8-{(E)-2-[4-(4-hydroxy-4-methyl-piperidine-1-carbonyl)-2,6-dimethyl-phenyl]-ethenesulfonyl}-1,3,8-triaza-spiro[4.5]dec-1-en-4-one] | 77%

Second part, the compound after the results:

Row | cAMP production activity (%) | SMILES
12 | 86% | Cc1cc(C(=O)N2CCC(C)(O)CC2)cc(C)c1/C=C/S(=O)(=O)N1CCC2(CC1)N=C(c1ccc(Cl)c(OC(C)(C)C(F)(F)F)c1)NC2=O [Compound 1210, 2-[4-chloro-3-(2,2,2-trifluoro-1,1-dimethyl-ethoxy)-phenyl]-8-{(E)-2-[4-(4-hydroxy-4-methyl-piperidine-1-carbonyl)-2,6-dimethyl-phenyl]-ethenesulfonyl}-1,3,8-triaza-spiro[4.5]dec-1-en-4-one]
13 | 79% | Cc1cc(C2=NC3(CCN(S(=O)(=O)/C=C/c4c(C)cc(C(=O)N5CCC(C)(O)CC5)cc4C)CC3)C(=O)N2)ccc1OC(F)(F)F [Compound 1214, 8-{(E)-2-[4-(4-hydroxy-4-methyl-piperidine-1-carbonyl)-2,6-dimethyl-phenyl]-ethenesulfonyl}-2-(3-methyl-4-trifluoromethoxy-phenyl)-1,3,8-triaza-spiro[4.5]dec-1-en-4-one]
14 | 74% | Cc1cc(C(=O)N2CCC(C)(O)CC2)cc(C)c1/C=C/S(=O)(=O)N1CCC2(CC1)N=C(c1ccc(F)c(OCCCF)c1)NC2=O [Compound 1215, 2-[4-fluoro-3-(3-fluoro-propoxy)-phenyl]-8-{(E)-2-[4-(4-hydroxy-4-methyl-piperidine-1-carbonyl)-2,6-dimethyl-phenyl}-ethenesulfonyl]-1,3,8-triaza-spiro[4.5]dec-1-en-4-one]
15 | 61% | Cc1cc(C(=O)N2CCC(C)(O)CC2)cc(C)c1/C=C/S(=O)(=O)N1CCC2(CC1)N=C(c1ccc(OCC(F)(F)F)c(Cl)c1)NC2=O [Compound 1216, 2-[3-chloro-4-(2,2,2-trifluoro-ethoxy)-phenyl]-8-{(E)-2-[4-(4-hydroxy-4-methyl-piperidine-1-carbonyl)-2,6-dimethyl-phenyl]-ethenesulfonyl}-1,3,8-triaza-spiro[4.5]dec-1-en-4-one]
16 | 68% | Cc1cc(C(=O)N2CCC(C)(O)CC2)cc(C)c1/C=C/S(=O)(=O)N1CCC2(CC1)N=C(c1ccc(F)c(C(F)F)c1)NC2=O [Compound 1217, 2-(3-difluoromethyl-4-fluoro-phenyl)-8-{(E)-2-[4-(4-hydroxy-4-methyl-piperidine-1-carbonyl)-2,6-dimethyl-phenyl]-ethenesulfonyl}-1,3,8-triaza-spiro[4.5]dec-1-en-4-one]
17 | 67% | Cc1cc(C(=O)N2CCC(C)(O)CC2)cc(C)c1/C=C/S(=O)(=O)N1CCC2(CC1)N=C(c1ccc(C(F)F)c(F)c1)NC2=O [Compound 1219, 2-(4-difluoromethyl-3-fluoro-phenyl)-8-{(E)-2-[4-(4-hydroxy-4-methyl-piperidine-1-carbonyl)-2,6-dimethyl-phenyl]-ethenesulfonyl}-1,3,8-triaza-spiro[4.5]dec-1-en-4-one]
18 | 75% | [2H]C([2H])([2H])C([2H])([2H])Oc1ccc(C2=NC3(CCN(S(=O)(=O)/C=C/c4c(C)cc(C(=O)N5CCC(C)(O)CC5)cc4C)CC3)C(=O)N2)cc1C(F)(F)F [Compound 1221, 2-(4-[1,1,2,2,2-^2H5]ethoxy-3-trifluoromethyl-phenyl)-8-{(E)-2-[4-(4-hydroxy-4-methyl-piperidine-1-carbonyl)-2,6-dimethyl-phenyl]-ethenesulfonyl}-1,3,8-triaza-spiro[4.5]dec-1-en-4-one]
19 | 54% | Cc1cc(C(=O)N2CCC(C)(O)CC2)cc(C)c1/C=C/S(=O)(=O)N1CCC2(CC1)N=C(c1ccc(C(F)(F)F)c(OCC(F)(F)C(F)F)c1)NC2=O [Compound 1223, 8-{(E)-2-[4-(4-hydroxy-4-methyl-piperidine-1-carbonyl)-2,6-dimethyl-phenyl]-ethenesulfonyl}-2-[3-(2,2,3,3-tetrafluoro-propoxy)-4-trifluoromethyl-phenyl]-1,3,8-triaza-spiro[4.5]dec-1-en-4-one]
